The text below walks through data of patent US20250082653A1, “THERAPEUTIC PRODUCT IN THE FORM OF A DENTAL GEL” (CB21 PHARMA, S.R.O., priority 2021, published 2025).

For data set [1], the system named is human gingival fibroblasts (HGF). Nature of the data set: MTT cytotoxicity test in human gingival fibroblasts. Format: cell-based. To be noted: CBD 0.25 and 0.5 μmol/l; 24 h incubation. As for the experimental part:
In an in vitro study of the effect of cannabidiol (CBD), human gingival fibroblasts (HGF) isolated from gingiva taken from volunteers at the Department of Oral, Maxillofacial and Facial Surgery of the University Hospital and Medical Faculty of Palacký University Olomouc approved by the Ethics Committee of the University Hospital and Medical Faculty of Palacký University Olomouc (2019) were used. In the first phase of the experiment, a safe CBD concentration was determined based on the results of MTT, which is cytotoxicity test based on the reduction of 3-(4,5-dimethylthiazol-2-yl)-2,5-diphenyltetrazolium bromide (MTT) to the corresponding formazane. The test was performed according to M. D. Maines, L. G. Costa, D. J. Reed, et al. Current protocols in toxicology. New York: John Wiley & Sons. (1998).
Cells seeded in a 96-well plate at a count of 3×10^4 cells/ml and 100 μl/well, which were […], 100 μl MTT was added (0.5 mg/ml in serum-free culture medium), the mixture was incubated for 2 h. After the incubation period and aspiration of the MTT mixture, 100 μl DMSO (dimethyl sulfoxide) with NH3 (1%, v/v) was added. Absorbance was measured at 540 nm.
In general terms: Formazan colour is commonly taken as a measure of viable cells.

In another data set the test system is IL-6. Nature of the data set: IL-6 production (ELISA) in HGF after P. gingivalis LPS inflammation induction. It counts as cell-based, human. The note with it: CBD 0.25 and 0.5 μmol/l, 6 and 24 h. The method, then: (§1) According to the values obtained from the MTT test, two subtoxic concentrations of CBD (0.25 and 0.5 μmol/l) were selected and used to determine its anti-inflammatory effect. Inflammation to HGF was induced by P. gingivalis lipopolysaccharide (LPS) according to How K. Y., Song K. P., Chan K. G., Porphyromonas gingivalis: An Overview of Periodontopathic Pathogen below the Gum Line. Front Microbiol 2016; 7:53. HGFs were seeded in 6-well plates and allowed to grow to confluence. The cells were washed with 1 ml of PBS, and then LPS (1 μg/ml, 2 ml/well) in serum-free culture medium was added, and incubated for 24 hours. A portion of the cells was left without the application of LPS (i.e., without induced inflammation). At the end of the incubation period, CBD in serum-free culture medium at concentrations of 0.25 and 0.5 μmol/l was added (2 ml/well) for 6 and 24 hours, both for cells cultured with LPS and for cells without LPS application. At selected time intervals, the culture medium was collected and stored at −80° C. for further analysis. The levels of proinflammatory interleukins IL-6, IL-8 (Human ELISA Development Kit, Cat. No. 900-K16 and 900-K18, PeproTech, Baria, Czech Republic) and matrix metalloproteinase (MMP-2) (Duo Set ELISA Development System, Cat. No. DY902, R&D, Bio-Techne, UK) were determined by ELISA. […]
Background: ELISA stands for enzyme-linked immunosorbent assay.

The next data set deals with IL-8. Description: IL-8 production (ELISA) in HGF after P. gingivalis LPS inflammation induction. It counts as cell-based, human. To be noted: CBD 0.25 and 0.5 μmol/l, 6 and 24 h. The method, then: as §1
Data set [2] concerns matrix metalloproteinase (MMP-2). Description: MMP-2 production (ELISA) in HGF after P. gingivalis LPS inflammation induction. Format: cell-based, human. To be noted: CBD 0.25 and 0.5 μmol/l, 6 and 24 h. As for the experimental part:
as §1

Data set [3] relates to Porphyromonas gingivalis CCM 3985. Nature of the data set: MIC by microdilution method (CLSI M11), anaerobic. To be noted: P. gingivalis, 60 h anaerobic incubation, three independent experiments. Format: cell-based. As for the experimental part:
(§2) Strains Streptococcus mutans CCM 7409 and Porphyromonas gingivalis CCM 3985 were selected for testing. Both were obtained from Czech Collection of Microorganisms (Brno). BHI+kh medium (Brain-heart infusion (Oxoid, UK) enriched with vitamin K (0.001 mg/ml) and hemin ([…])) was used to cultivate S. mutans, and for P. gingivalis medium WCHA—Wilkins-Chalgren agar (HiMedia, India), with 7% sheep erythrocytes and vitamin K (0.001 mg/ml). (Blaskovich M A T, Kavanagh A M, Elliott A G, Zhang B, Ramu S, Amado M et al. The antimicrobial potential of cannabidiol. Commun Biol 2021; 4(1):1-18).
(§3) The susceptibility of selected microbes to tested substance was verified by the microdilution method according to Clinical and Laboratory Standards Institute (M Methods for Antimicrobial Susceptibility Testing of Anaerobic Bacteria. 9th ed. CLSI standard M11. Wayne, PA: Clinical and Laboratory Standards Institute; 2018).
(§4) Basic working solutions were prepared from the tested substance by dilution in DMSO. […] The required concentrations of the tested substance were then prepared by serial dilution, dilution factor 1:2. 135 μl of each dilution was pipetted into the wells of a 96-well round-bottomed hardened polystyrene microtiter plate (Gamma České Budějovice, a.s.).
(§5) From fresh cultures of the test strains on Wilkins-Chalgren agar (WCHA; HiMedia, India), with 7% sheep erythrocytes and vitamin K, suspensions were prepared in BHI+kh at an optical density corresponding to 0.5 degrees McFarland turbidity scale (after subtraction of optical density of the medium). The suspensions were then diluted in the ratio 1:15 (final inoculum concentration 5×10^6 CFU/ml). Individual wells with 135 μl of the CBD solutions and control wells were inoculated with 15 μl of the prepared inoculum.
(§6) The inoculated microtiter plates were incubated in an Anaerobic Work Station (Ruskinn Technology, UK) with an anaerobic atmosphere (80% N2, 10% CO2 and 10% H2) at 37° C. The incubation was performed for 60 hours for P. gingivalis and 24 hours for S. mutans.
(§7) The sterility of the medium was checked by transferring 150 μl BHI+kh to three wells of a microtiter plate. […]
(§8) After evaluating the MIC, the contents of the wells with the highest concentration of CBD and with visible microbial growth were inoculated onto WCHA. […] After 48 hours (S. mutans) or 14 days (P. gingivalis) of incubation in an anaerobic atmosphere, the purity of the grown microbial culture was evaluated. […]
(§9) The growth of the microbe, which manifested itself by turbidity of the medium or as a sediment at the bottom of the well of the microtiter plate, was monitored in the individual wells of the microtiter plate. […] The minimum inhibitory concentration (MIC) was determined as the lowest concentration of the substance at which no microbial growth was observed. […]

The test system of data set [4] is Streptococcus mutans CCM 7409. Nature of the data set: MIC by microdilution method (CLSI M11), anaerobic. The note with it: S. mutans, 24 h anaerobic incubation, three independent experiments. Format: cell-based. The method, then:
as §2, §3, §4, §5, §6, §7, §8, §9
(In general: Broth dilution looks for growth in wells or tubes with falling amounts of substance.)

Another data set relates to gingival fibroblasts. Nature of the data set: Permeation of CBD into gingival fibroblasts (UHPLC/MS). Format: in vitro ADME, human. To be noted: 0.5 μM CBD. The method, then: Gingival fibroblasts (obtained from three healthy patients) were seeded in a 6-well plate (well area 9.6 cm^2) and allowed to grow until the next day (confluence). CBD was applied to the cells at a concentration of 0.5 μM for 6 and 24 hours. At the end of the incubation period, 250 μl of medium was mixed with 250 μl of methanol with 1% (w/w) HCl and the cells were washed 2× with PBS (1 ml), scraped from 4 wells into PBS (phosphate buffer, 1 ml), centrifuged for 5 minutes at 3000 rpm. After centrifugation, PBS was removed and 0.5 ml of methanol with 1% (w/w) HCl was added and the cells were sonicated (cycle 0.5, amplitude 50, 10 times). The samples were then centrifuged for 2 minutes at 8000 rpm and the supernatant was pipetted into a clean tube and subjected to UHPLC/MS analysis.
UHPLC/MS analyses were performed on an ACQUITY I Class liquid chromatograph (Waters, Milford, MA, USA). It is a modular system consisting of a chromatographic pump (Binary Solvent Manager), autosampler (Sample Manager) and column thermostat (Column Manager). Kinetex Polar C18 (100×2.1 mm i.d., 2.6 μm; Phenomenex, CA, USA) was used as the analytical column. The system was operated with a gradient elution of the mobile phase (MFA 0.1% formic acid in water, MFB 0.1% formic acid in acetonitrile) at a flow rate of 0.6 ml/min and a temperature of 25° C. The gradient elution had the following parameters: 0 to 11 min 50 to 70% MFB, 11 to 12.5 min 70 to 100% MFB, 12.5 to 13 min 100 to 50% MFB, 13 to 16 min 50% MFB. The injection volume was 2 μl.
A high resolution Synapt G2-S mass spectrometer (Waters Corp., Manchester, UK) connected to the UPLC system via an electrospray ionization (ESI) interface was used for the metabolic study. The ion source was operated in positive ionization mode with a capillary voltage of 3.0 kV and a sample cone of 30 V. The source temperature and desolvation gas temperature were set at 120° C. and 320° C. The desolvation gas flow rate was 900 l/h. […]

Converted amounts (≈) assume the structure as drawn.

A word on the MIC: it is the lowest concentration found to suppress growth. With `C=C(C)[C@@H]1CCC(C)=C[C@H]1c1c(O)cc(CCCCC)cc1O` [CBD, cannabidiol], the “Cytotoxicity by MTT test” value in data set [1] is listed as “subtoxic”. Also, the “levels of IL-6” value in the data set with IL-6 is “decrease”. Further, in the data set with IL-8, the “levels of IL-8” value was “decrease”. For the same compound, the MMP-2 levels entry in data set [2] is “no significant changes”. Further, the values for the MIC range in data set [3] and in data set [4] were 1 to 2 µg/mL and 16 µg/mL (≈ 50.9 µM), respectively. Further, the MIC in data set [3] (Porphyromonas gingivalis, CCM3985, read-out: MIC median) was found to be 1.5 µg/mL (≈ 4.77 µM); in data set [4] (Streptococcus mutans, CCM7409, read-out: MIC median), 16 µg/mL (≈ 50.9 µM). Further, in the data set on gingival fibroblasts (6 and 24 h, cell lysates), the “absorption of CBD by gingival fibroblasts” value is recorded as “absorbed relatively quickly”. For the same compound, in the data set with gingival fibroblasts (6 and 24 h incubation, UHPLC/MS), the “CBD in the culture medium” value is “not detected”. In the data set on gingival fibroblasts (after 24 h of cultivation), the “metabolites of CBD” value is on record as “no metabolites of CBD were identified”.
